The text below walks through data of patent EP0267050B1, “Aerosols containg liposomes and method for their preparation” (priority 1986, dated 1988).

The conditions of series [1]: cited from earlier work.
Series [2] has as its system Muscle from many organs of rats. The series is described as follows: Effects in vitro on muscle: antagonism of dose response curves. Conditions: rat muscle in vitro, 10⁻⁵ to 10⁻⁸M; similar to that of potassium chloride. As to the method:
(§1) Effects in vitro on muscle. Muscle from many organs of rats was tested with 10⁻⁵ to 10⁻⁸M enviroxime.

The nature of series [3]: Plasma concentration after I.V. doses. In kind it is in vivo, dogs. As to the method:
(§2) Effects on cats and dogs. […] Plasma concentrations of enviroxime were 3.0, 8.9 and 19 µg/mL following these I.V. doses. Bioassay (antiviral) and biochemical assay of blood yielded similar results.

Series [4] in a line: Animal tolerance: effects on electrolytes and urine output. In kind it is in vivo. Conditions: rats. The source says:
Effects on electrolytes. […] The oliguria was associated with increases in potassium in serum but not sodium.

A short description of series [5]: Animal tolerance: effects of oral doses in mice. In kind it is in vivo.
A further series concerns coxsackieviruses. Conditions: cited from earlier work.
The subject of another series is echoviruses. Conditions: cited from earlier work.
Another series concerns rhinoviruses. Conditions: all rhinoviruses tested; generally range; cited from earlier work.
The next series relates to prostaglandin E2. The series is described as follows: Effects in vitro on muscle: receptor activation. Set-up: species or system rats. Conditions: rat muscle in vitro, 10⁻⁵ to 10⁻⁸M. On the procedure:
as §1

A further series has as its system adrenergic. Put plainly: Effects in vitro on muscle: receptor activation. Further details: species or system rats. Conditions: rat muscle in vitro, 10⁻⁵ to 10⁻⁸M. As to the method: as §1
The next series deals with histamine. Put plainly: Effects in vitro on muscle: receptor activation. Further details: species or system rats. Conditions: rat muscle in vitro, 10⁻⁵ to 10⁻⁸M. On the procedure:
as §1

Another series relates to polioviruses. Conditions: cited from earlier work.
Series [6] concerns primary antibody response. In kind it is in vivo. Conditions: mice.
Series [7] is described as follows: Animal tolerance: cardiovascular effects in cats. In kind it is in vivo. On the procedure:
as §2

Series [8] is described as follows: Animal tolerance: diastolic blood pressure in dogs. In kind it is in vivo. Conditions: following 1, 3, and 10 mg/kg I.V. doses. On the procedure:
as §2

For the next series, the system named is cells in culture. Conditions: cited from earlier work.
[9] abbreviates: associated with the oliguria at 25 mg/kg and above.

Regarding `CC(C)S(=O)(=O)n1c(N)nc2ccc(/C(=N/O)c3ccccc3)cc21` [enviroxime], the soluble in water in series [1] was 1 to 2 µg/mL. In series [2], the “antagonism of dose response curves” value was “some non-competitive antagonism”. The figures for the Plasma concentrations in [3] (following 1 mg/kg I.V. dose), in series [3] (following 3 mg/kg I.V. dose) and in series [3] (following 10 mg/kg I.V. dose) were 3000 ng/mL, 8900 ng/mL and 19000 ng/mL, respectively. Further, the potassium in serum entry in [4] (setting [9]) is reported as “increases”. Moreover, the sodium in serum entry in [4] (setting [9]) is on record as “not”. Besides, the oliguria result in series [4] (dose of 25 mg/kg and above) was “significant oliguria”. For the same compound, the effects in mice entry in [5] (50 mg/kg orally) is “no detectable effects”; in [5] (higher doses, 100-400 mg/kg) it was “increasing leg weakness, decreased motor activity and gait disturbances”. The “onset of the effect of high doses” value in series [5] (mice, high doses) is given as “within a few minutes”. The “tolerance of oral doses” value in series [5] (oral doses up to 100 mg/kg, a number of other tests) was “well tolerated”. In the series on coxsackieviruses, the activity against coxsackieviruses entry was “active”. Also, the activity against echoviruses result in the series with echoviruses is reported as “active”. For the same compound, in the series on rhinoviruses, the inhibitory concentrations is on record as 0.3 to 0.9 µg/mL. In the series on prostaglandin E2, the “activation of prostaglandin E2 receptors” value was “did not activate”. Moreover, the “activation of adrenergic receptors” value in the series on adrenergic is “did not activate”. Besides, in the series on histamine, the “activation of histamine receptors” value was “did not activate”. Further, the activity against polioviruses entry with polioviruses is given as “active”. The “immune suppressive activity on primary antibody response” value in series [6] was “no immune suppressive activity”. Moreover, the cardiovascular effects entry in [7] is “no significant cardiovascular effects”. The diastolic blood pressure result in series [8] is “some stepwise depression”. The “Maximum tolerated concentrations for cells in culture” value with cells in culture is 4 to 100 µg/mL.
